Data from US20230041743A1, “1,8-NAPHTHYRIDIN-2-ONE COMPOUNDS FOR THE TREATMENT OF AUTOIMMUNE DISEASE” (Hoffmann-La Roche Inc., priority 2019, published 2023).

molecular target: T1, human TLR7 (Homo sapiens, UniProt Q9NYK1); assay: HEK293-Blue-hTLR-7 cells assay (SEAP reporter, R848 stimulation); type: cell-based; details: HEK293-Blue-hTLR7 cells, R848 ligand, 20 hrs incubation; read-out: HEK/hTLR7 IC50
T1 construct: host or cells: HEK293 (HEK-Blue hTLR7)
T1 sequence (Q9NYK1 27-1049): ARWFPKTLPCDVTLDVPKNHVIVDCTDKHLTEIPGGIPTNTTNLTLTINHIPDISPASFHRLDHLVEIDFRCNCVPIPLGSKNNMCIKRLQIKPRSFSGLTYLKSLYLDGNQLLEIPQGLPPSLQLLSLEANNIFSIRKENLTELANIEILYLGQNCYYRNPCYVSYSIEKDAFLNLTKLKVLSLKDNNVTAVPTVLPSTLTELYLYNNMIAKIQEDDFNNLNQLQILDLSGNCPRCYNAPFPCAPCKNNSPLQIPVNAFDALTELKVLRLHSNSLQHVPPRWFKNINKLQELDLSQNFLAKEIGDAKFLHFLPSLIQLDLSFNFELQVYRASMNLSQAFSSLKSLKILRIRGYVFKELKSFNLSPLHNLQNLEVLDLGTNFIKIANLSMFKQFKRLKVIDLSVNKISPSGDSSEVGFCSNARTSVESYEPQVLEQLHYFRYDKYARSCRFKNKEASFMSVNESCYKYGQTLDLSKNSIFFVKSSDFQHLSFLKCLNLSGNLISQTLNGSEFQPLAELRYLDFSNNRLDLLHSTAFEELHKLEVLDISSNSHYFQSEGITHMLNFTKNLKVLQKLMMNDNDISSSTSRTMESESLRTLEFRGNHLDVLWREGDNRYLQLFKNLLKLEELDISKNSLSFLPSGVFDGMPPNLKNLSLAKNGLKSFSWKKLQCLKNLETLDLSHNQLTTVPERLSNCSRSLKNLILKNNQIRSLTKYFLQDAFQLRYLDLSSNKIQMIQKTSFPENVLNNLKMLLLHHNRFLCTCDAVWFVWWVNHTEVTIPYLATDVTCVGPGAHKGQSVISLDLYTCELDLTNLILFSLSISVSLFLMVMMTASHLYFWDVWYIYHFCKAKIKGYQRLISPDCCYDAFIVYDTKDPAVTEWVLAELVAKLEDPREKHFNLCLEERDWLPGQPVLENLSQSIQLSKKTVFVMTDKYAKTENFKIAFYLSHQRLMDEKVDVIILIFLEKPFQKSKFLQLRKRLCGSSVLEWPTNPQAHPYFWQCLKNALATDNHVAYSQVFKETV
From the text: HEK293-Blue-hTLR-7 Cells Assay:
A stable HEK293-Blue-hTLR-7 cell line was purchased from InvivoGen (Cat. #: hkb-htlr7, San Diego, Calif., USA). These cells were originally designed for studying the stimulation of human TLR7 by monitoring the activation of NF-κB. A SEAP (secreted embryonic alkaline phosphatase) reporter gene was placed under the control of the IFN-β minimal promoter fused to five NF-κB and AP-1-binding sites. The SEAP was induced by activating NF-κB and AP-1 via stimulating HEK-Blue hTLR7 cells with TLR7 ligands. Therefore the reporter expression was declined by TLR7 antagonist under the stimulation of a ligand, such as R848 (Resiquimod), for incubation of 20 hrs. The cell culture supernatant SEAP reporter activity was determined using QUANTI-Blue™ kit (Cat. #: rep-qb1, Invivogen, San Diego, Ca, USA) at a wavelength of 640 nm, a detection medium that turns purple or blue in the presence of alkaline phosphatase.
HEK293-Blue-hTLR7 cells were incubated at a density of 250,000-450,000 cells/mL in a volume of 170 μL in a 96-well plate in Dulbecco's Modified Eagle's medium (DMEM) containing 4.5 g/L glucose, 50 U/mL penicillin, […], […], 2 mM L-glutamine, 10% (v/v) heat-inactivated fetal bovine serum with addition of 20 μL test compound in a serial dilution in the presence of final DMSO at 1% and 10 μL of 20 uM R848 in above DMEM, perform incubation under 37° C. in a CO2 incubator for 20 hrs. Then 20 μL of the supernatant from each well was incubated with 180 μL Quanti-blue substrate solution at 37° C. for 2 hrs and the absorbance was read at 620˜655 nm using a spectrophotometer. The signaling pathway that TLR7 activation leads to downstream NF-κB activation has been widely accepted, and therefore similar reporter assay was modified for evaluating TLR7 antagonist.

IC50 [nM]	SMILES
30.4	C[C@@H]1CN(c2cc(=O)n(C)c3ncccc23)C[C@@H]2c3ccc(N4CC(C)(N)C4)cc3CN12 [Example 1, 4-[(4R,10bS)-8-(3-amino-3-methyl-azetidin-1-yl)-4-methyl-3,4,6,10b-tetrahydro-1H-pyrazino[2,1-a]isoindol-2-yl]-1-methyl-1,8-naphthyridin-2-one]
11.5	C[C@@H]1CN(c2cc(=O)n(C)c3ncccc23)C[C@@H]2c3ccc(N4CC5(CN(C)C5)C4)cc3CN12 [Example 2, 4-[(4R,10bS)-4-methyl-8-(6-methyl-2,6-diazaspiro[3.3]heptan-2-yl)-3,4,6,10b-tetrahydro-1H-pyrazino[2,1-a]isoindol-2-yl]-1-methyl-1,8-naphthyridin-2-one]
21.1	C[C@@H]1CN(c2cc(=O)n(C)c3ncccc23)C[C@@H]2c3ccc(N4CC5(CNCCO5)C4)cc3CN12 [Example 3, 4-[(4R,10bS)-4-methyl-8-(5-oxa-2,8-diazaspiro[3.5]nonan-2-yl)-3,4,6,10b-tetrahydro-1H-pyrazino[2,1-a]isoindol-2-yl]-1-methyl-1,8-naphthyridin-2-one]
39.5	C[C@@H]1CN(c2cc(=O)n(C)c3ncccc23)C[C@@H]2c3ccc(N4CC[C@@](C)(N)C4)cc3CN12 [Example 4, 4-[(4R,10bS)-8-[(3R)-3-amino-3-methyl-pyrrolidin-1-yl]-4-methyl-3,4,6,10b-tetrahydro-1H-pyrazino[2,1-a]isoindol-2-yl]-1-methyl-1,8-naphthyridin-2-one]
38.1	CO[C@@H]1CN(c2ccc3c(c2)CN2[C@H](C)CN(c4cc(=O)n(C)c5ncccc45)C[C@H]32)C[C@H]1N [Example 5, 4-[(4R,10bS)-8-[(3R,4R)-3-amino-4-methoxy-pyrrolidin-1-yl]-4-methyl-3,4,6,10b-tetrahydro-1H-pyrazino[2,1-a]isoindol-2-yl]-1-methyl-1,8-naphthyridin-2-one]
62	C[C@@H]1CN(c2cc(=O)n(C)c3ncccc23)C[C@@H]2c3ccc(N4C[C@H]5NCCO[C@@H]5C4)cc3CN12 [Example 6, 4-[(4R,10bS)-8-[(4aR,7aR)-3,4,4a,5,7,7a-hexahydro-2H-pyrrolo[3,4-b][1,4]oxazin-6-yl]-4-methyl-3,4,6,10b-tetrahydro-1H-pyrazino[2,1-a]isoindol-2-yl]-1-methyl-1,8-naphthyridin-2-one]
43.7	C[C@@H]1CN(c2cc(=O)n(C)c3ncccc23)C[C@@H]2c3ccc(N4C[C@@H](N)[C@@H](F)C4)cc3CN12 [Example 7, 4-[(4R,10bS)-8-[(3R,4S)-3-amino-4-fluoro-pyrrolidin-1-yl]-4-methyl-3,4,6,10b-tetrahydro-1H-pyrazino[2,1-a]isoindol-2-yl]-1-methyl-1,8-naphthyridin-2-one]
19.4	CO[C@H]1CN(c2ccc3c(c2)CN2[C@H](C)CN(c4cc(=O)n(C)c5ncccc45)C[C@H]32)CC[C@@H]1N [Example 8, 4-[(4R,10bS)-8-[(3S,4S)-4-amino-3-methoxy-1-piperidyl]-4-methyl-3,4,6,10b-tetrahydro-1H-pyrazino[2,1-a]isoindol-2-yl]-1-methyl-1,8-naphthyridin-2-one]
62.6	CO[C@H]1CCN(c2ccc3c(c2)CN2[C@H](C)CN(c4cc(=O)n(C)c5ncccc45)C[C@H]32)C[C@@H]1N [Example 9, 4-[(4R,10bS)-8-[(3S,4S)-3-amino-4-methoxy-1-piperidyl]-4-methyl-3,4,6,10b-tetrahydro-1H-pyrazino[2,1-a]isoindol-2-yl]-1-methyl-1,8-naphthyridin-2-one]
9.1	COC[C@@H]1CNCCN1c1ccc2c(c1)CN1[C@H](C)CN(c3cc(=O)n(C)c4ncccc34)C[C@H]21 [Example 10, 4-[(4R,10bS)-8-[(2S)-2-(methoxymethyl)piperazin-1-yl]-4-methyl-3,4,6,10b-tetrahydro-1H-pyrazino[2,1-a]isoindol-2-yl]-1-methyl-1,8-naphthyridin-2-one]
